Bridge positions count the residues as written; N and C are the ends. Peptide text beside a SMILES is read from it.
Legend:
Serum stability (LC-MS) = type: in vitro ADME; settings: human serum; for remaining at 96 h, 30 μM / metabolised at 24 h, 30 μM: 37° C.; for remaining at 96 h, 30 μM: after 96 hours, read-out: peak intensities relative to starting values; for metabolised at 24 h, 30 μM: read-out: degraded
Method: Serum Stability: Peptide stocks (600 μM) were prepared in water and 50 μL added to 950 μL human serum (Merck) before incubation at 37° C. […] The supernatant was analysed by LC-MS and quantified using the sum of the two largest charge state intensities (1: 9+, 10+; 23,24: 3+, 4+).

cJun = cJun (Homo sapiens, UniProt P05412, S292Y); assay: Isothermal titration calorimetry, Example 2 (PEAQ-ITC); type: binding; set-up: The same 60 amino acid c-Jun bZIP construct was used for all experiments; His-SUMO (N, cleaved yes); made in house; host or cells: E. coli; settings: for ΔG / ΔH / −TΔS / Stoichiometry, n: ITC; for Stoichiometry, n: c-Jun-peptide interaction
Method: 2 μL injections of antagonist peptide at 25-200 μM were injected into the cell containing cJun at 2.5-20 μM. Software was used to record and analyse the heat change upon addition. Control experiments involved the injection of the antagonist peptide sample into the cell containing ITC buffer alone to determine the heat of dilution which was subtracted. The resulting binding data were fit to a one site binding model to extract the enthalpy change of binding (ΔH) and the equilibrium binding constant (KD), from which the free energy change of binding (ΔG) and the entropy change of binding (ΔS) was calculated (Wiseman et al., 1989). Thermodynamic parameters are presented as an average of two independent experiments with errors given as one standard deviation.

cJun/TRE DNA interaction = target: T1, cJun/TRE DNA interaction (Homo sapiens, UniProt P05412, S292Y); assay: CD cJun/TRE DNA antagonism (shift of TRE DNA peak at ~281 nm, Hill fit); type: biochemical
T1 construct: The same 60 amino acid c-Jun bZIP construct was used for all experiments; His-SUMO (N, cleaved yes); made in house; host or cells: E. coli
Source text: Briefly, in TBS the coding region for the essential gene dihydrofolate reductase (DHFR) is mutated to incorporate TRE sites so that introduction of c-Jun to this gene inside E. coli produces a transcriptional block that abrogates cell proliferation. The TRE site-bound c-Jun molecules sterically prevent RNA polymerase transcribing the essential gene and this can only be restored upon introduction of an effective c-Jun/TRE antagonist. Consequently, the survival of a particular cell is controlled by the ability of a peptide library member to remove the c-Jun transcriptional block and therefore to restore DHFR activity. TBS thus facilitates the identification of therapeutically valuable sequences. Further details for the TBS assay are provided in WO2020128015, which is incorporated herein by reference in its entirety. […] The TRE-DNA construct produces a positive CD peak at ˜281 nm, which decreases in intensity upon c-Jun binding. […] This method allows for the calculation of an IC50 value by fitting the titration data to a Hill equation. In some embodiments, the c-Jun antagonist is able to inhibit the DNA-binding activity of c-Jun within 10-fold of the ability of HingeW to inhibit the DNA-binding activity of c-Jun (e.g. the c-Jun antagonist has a reduced ability to inhibit the DNA-binding activity of c-Jun that is within 10-fold of that determined for HingeW). In some embodiments, the c-Jun antagonist is able to inhibit the DNA-binding activity of c-Jun within 9-fold, preferably within 8-fold, more preferably within 7-fold, even more preferably within 6-fold, yet more preferably within 5-fold of the ability of HingeW to inhibit the DNA-binding activity of c-Jun. The ability of the c-Jun antagonist and HingeW to inhibit the DNA-binding activity may be measured using the TBS assay (e.g. by quantifying the number of colonies) or by determining the IC50 using a circular dichroism assay described herein. Optionally, the c-Jun antagonist may have this activity when cross-linked. Methods for cross-linking peptides are described in more detail below.
Therefore, the acidic domain was the initial focus for optimisation. 1 was iteratively truncated (2-6) to investigate the effect on c-Jun binding and c-Jun/TRE DNA antagonism. […] Thermal denaturation experiments were then used to determine the Tm of peptide-c-Jun heterodimers, which was used as an approximate measure of target engagement. CD was also used to investigate the ability of the functional activity of peptides in antagonising the c-Jun/TRE DNA interaction. The TRE-DNA construct used produces a positive CD peak at ˜281 nm (no c-Jun absorbance at this wavelength allows for direct measurement of DNA upon binding) which decreases in intensity upon c-Jun binding. […] This allowed for the calculation of an IC50 value by fitting the titration data to a Hill equation. […] The same 60 amino acid c-Jun bZIP construct was used for all experiments, regardless of antagonist peptide length.

[1] = CD spectra and thermal denaturation of peptide-only samples (helicity, homodimer Tm)
cJun bZIP [2] = target: cJun bZIP (Homo sapiens, UniProt P05412, S292Y); assay: CD spectra and thermal denaturation of peptide/cJun heterodimers; settings: for Tm (° C.): peptide (5 μM)/c-Jun (5 μM) heterodimer, Table 6
Method: Circular Dichroism (CD): An Applied Photophysics Chirascan was used for CD measurements, with a 200 μL sample in a 1 mm path length CD cell. Protein/DNA samples were suspended in 150 mM potassium phosphate, 150 mM potassium fluoride and 5 mM TCEP at pH 7.4 and were equilibrated for 30 minutes before measurement. […] These scans were averaged and converted to molar residue ellipticities (MRE). Thermal denaturation experiments were performed by measuring the ellipticity at 222 nm over a 1 to 90° C. gradient at 1° C. increments. Post-melt scans at 20° C. confirmed the transitions were reversible as they overlaid within 10% of the pre-melt scan.
Circular Dichroism (CD): An Applied Photophysics Chirascan was used for CD measurements, with a 200 μL sample in a 1 mm path length CD cell. Protein/DNA samples were suspended in 150 mM potassium phosphate, 150 mM potassium fluoride and 5 mM TCEP at pH 7.4 and were equilibrated for 30minutes before measurement. […] Thermal denaturation experiments were performed by measuring the ellipticity at 222 nm over a 1 to 90° C. gradient at 1° C. increments. Post-melt scans at 20° C. confirmed the transitions were reversible as they overlaid within 10% of the pre-melt scan.
Peptide helicity was determined by quantifying the CD signal at 222 nm of peptide only samples. Thermal denaturation experiments were then used to determine the Tm of peptide-c-Jun heterodimers, which was used as an approximate measure of target engagement. […] The same 60 amino acid c-Jun bZIP construct was used for all experiments, regardless of antagonist peptide length.

cJun bZIP [3] = target: T2, cJun bZIP (human, UniProt P05412 252-308, limits assumed); assay: CD thermal denaturation, peptide 5 µM and c-Jun 5 µM
T2 construct: Purified from a His-SUMO fusion with the tag cleaved off; also called c-Jun bZIP domain; 60 amino acid c-Jun bZIP construct
T2 chain: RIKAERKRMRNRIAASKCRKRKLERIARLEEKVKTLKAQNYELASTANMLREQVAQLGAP

cJun bZIP [4] = target: T2, cJun bZIP; assay: cell-based or functional assay
cJun bZIP [5] = target: T2, cJun bZIP; assay: CD thermal denaturation

| Molecule | remaining at 96 h, 30 μM (Serum stability (LC-MS)) | metabolised at 24 h, 30 μM (Serum stability (LC-MS)) | ΔG (cJun) | ΔH (cJun) | −TΔS (cJun) | Stoichiometry, n (cJun) | Tm (° C.) (cJun bZIP [2]) | Tm (° C.) of peptide-c-Jun heterodimer (cJun bZIP [3]) | IC50 CD (cJun bZIP [4]) | other results |
| --- | --- | --- | --- | --- | --- | --- | --- | --- | --- | --- |
| CC[C@H](C)[C@H](NC(=O)[C@H](CCC(=O)O)NC(=O)[C@H](CCCCN)NC(=O)[C@H](CCCNC(=N)N)NC(=O)[C@H](CC(C)C)NC(=O)[C@H](C)NC(=O)[C@H](Cc1ccc(O)cc1)NC(=O)[C@H](CC(N)=O)NC(=O)[C@H](CCCNC(=N)N)NC(=O)[C@H](CCC(=O)O)NC(=O)[C@H](CCC(=O)O)NC(=O)[C@H](CC(C)C)NC(=O)[C@H](CCC(N)=O)NC(=O)[C@H](CCC(=O)O)NC(=O)[C@@H](NC(=O)[C@H](CCC(=O)O)NC(=O)[C@H](CCC(=O)O)NC(=O)[C@H](CCC(=O)O)NC(=O)[C@H](CC(C)C)NC(=O)[C@@H](NC(=O)[C@H](CC(=O)O)NC(=O)[C@H](CCC(=O)O)NC(=O)[C@H](CCC(=O)O)NC(=O)[C@@H](NC(=O)[C@@H](NC(=O)[C@H](CC(C)C)NC(=O)[C@H](CCC(=O)O)NC(=O)[C@H](CCC(=O)O)NC(=O)[C@H](C)NC(=O)[C@H](CCC(=O)O)NC(C)=O)C(C)C)C(C)C)C(C)C)[C@@H](C)CC)C(=O)N[C@H]1CCCCNC(=O)C[C@@H](C(=O)N[C@@H](CCC(N)=O)C(N)=O)NC(=O)[C@H](CCC(N)=O)NC(=O)[C@H](CC(C)C)NC(=O)[C@H](CC(=O)O)NC1=O [Peptide 23] (Ac-EAEELVVEEDVLEEEIEQLEERNYALRKEIKDLQDQ-NH2; lactam 31-35 (inferred)) | 17% | 21% | -9.661 ± 0.117 kcal/mol | -23.6 ± 0.607 kcal/mol | 13.95 ± 0.619 kcal/mol | 0.97 ± 0.02 | 65.0 ± 1.4 °C | – | – | Kd (cJun): 0.0866 ± 0.017 µM; fold lower IC50 than 11 (cJun/TRE DNA interaction; P=0.003): 1.6 fold; change in fraction helicity from lactamisation ([1]; cyclised vs its linear form): ~8%; heterodimer ΔTm compared to parent sequence 11 (cJun bZIP [2]): ~8 °C; heterodimer ΔTm from lactamisation (cJun bZIP [2]; cyclised vs its linear form): ~9 °C |
| CC[C@H](C)[C@H](NC(=O)[C@H](CCC(=O)O)NC(=O)[C@H](CCCCN)NC(=O)[C@H](CCCNC(=N)N)NC(=O)[C@H](CC(C)C)NC(=O)[C@H](C)NC(=O)[C@H](Cc1ccc(O)cc1)NC(=O)[C@H](CC(N)=O)NC(=O)[C@H](CCCNC(=N)N)NC(=O)[C@H](CCC(=O)O)NC(=O)[C@H](CCC(=O)O)NC(=O)[C@H](CC(C)C)NC(=O)[C@H](CCC(N)=O)NC(=O)[C@H](CCC(=O)O)NC(=O)[C@@H](NC(=O)[C@H](CCC(=O)O)NC(=O)[C@@H]1CC(=O)NCCCC[C@H](NC(=O)[C@H](CCC(=O)O)NC(=O)[C@H](CCC(=O)O)NC(=O)[C@@H](NC(=O)[C@@H](NC(=O)[C@H](CC(C)C)NC(=O)[C@H](CCC(=O)O)NC(=O)[C@H](CCC(=O)O)NC(=O)[C@H](C)NC(=O)[C@H](CCC(=O)O)NC(C)=O)C(C)C)C(C)C)C(=O)N[C@@H](C(C)C)C(=O)N[C@@H](CC(C)C)C(=O)N[C@@H](CCC(=O)O)C(=O)N1)[C@@H](C)CC)C(=O)N[C@H]1CCCCNC(=O)C[C@@H](C(=O)N[C@@H](CCC(N)=O)C(N)=O)NC(=O)[C@H](CCC(N)=O)NC(=O)[C@H](CC(C)C)NC(=O)[C@H](CC(=O)O)NC1=O [Peptide 24] (Ac-EAEELVVEEKVLEDEIEQLEERNYALRKEIKDLQDQ-NH2; lactam 10-14, 31-35 (inferred)) | 35% | 7% | -10.95 ± 0.241 kcal/mol | -30.55 ± 0.624 kcal/mol | 19.6 ± 0.669 kcal/mol | 1.05 ± 0.01 | 63.2 ± 1.3 °C | – | – | serum stability (Serum stability (LC-MS); LC-MS): highest stability; change in IC50 compared to the best single lactamised peptide (cJun/TRE DNA interaction; P=0.02): significant decrease in IC50 value; increase in peptide helicity from 1 [1]: 20%; more helical compared to the best single lactamised peptide [1]: ~4%; change in heterodimer Tm compared to the best single lactamised peptide (cJun bZIP [2]): no significant change in heterodimer Tm |
| Ac-KEAEDLVVEEDVLEEEIEQLEERNYALRKEIKDLQDQ-NH2 (lactam (positions not given here); also: one i to i+4 K-D lactam bridge, pair not given here, Synthetic, NΔ19 CΔ7; also called cyclised form of 12/13) [HingeW variant peptide 13] | – | – | – | – | – | – | – | 58.5 ° C. | 92.5 µM | heterodimer ΔTm against parent sequence 11 (cJun bZIP [5]): ~1 ° C. |
| Ac-EAKELVDEEDVLEEEIEQLEERNYALRKEIEDLQKQ-NH2 (lactam 3-7, Synthetic, NΔ20 CΔ7; also called cyclised form of 14/15) [HingeW variant peptide 15] | – | – | – | – | – | – | – | 59.4 ° C. | 81.1 µM | heterodimer ΔTm from lactamisation (15 against linear 14) (cJun bZIP [5]): ~2 ° C. |

Reference: patent publication US20250188151A1, “C-JUN ANTAGONIST PEPTIDES” (The University of Bath, priority 2022, published 2025)
